Measurements taken from patent US10485741B2 (WONKWANG UNIVERSITY CENTER FOR INDUSTRY-ACADEMY COOPERATION, priority 2016, dated 2019).
Values after ≈ are worked out from the molar mass of the structure shown. Where two headings read alike, the source gives them in different places.

Key:
Type in all cases: cell-based, Streptococcus mutans
S. mutans (ATCC 25175) = assay: Agar diffusion test (paper disc), antibacterial substance alone; settings: for diameter of the S. mutans inhibition zone, 0.1 mM antibacterial substance alone: 5 μL of 0.1 mM substance on 6 mm paper disc; for diameter of the S. mutans inhibition zone, 0.1 mM antibacterial substance alone / diameter of the S. mutans inhibition zone, 1 mM antibacterial substance alone / diameter of the S. mutans inhibition zone, 10 mM antibacterial substance alone: 24 h, positive control 10 μL/ml ampicillin; for diameter of the S. mutans inhibition zone, 1 mM antibacterial substance alone: 5 μL of 1 mM substance on 6 mm paper disc; for diameter of the S. mutans inhibition zone, 10 mM antibacterial substance alone: 5 μL of 10 mM substance on 6 mm paper disc; for antibacterial activities against S. mutans (in words): screening from a total 100 substances; for activities against S. mutans (in words): 0.1 mM antibacterial substance
Protocol: Specifically, S. mutans was primarily cultured in a BHI medium in a CO2 incubator at 37°C. for 24 hours. Then, 200 μL of a suspension of S. mutans was inoculated into BHI and secondarily cultured for 6 hours. Then, the OD value was measured with Eppendorf Biophotometer plus. After the measurement, the bacteria were mixed with top agar and then inoculated into the agar medium containing base agar. After top agar hardened, a 6 mm diameter paper disc was placed on the agar medium. 5 μL of each of 0.1 mM, 1 mM and 10 mM antibacterial substances was dropped on the paper disc. 10 μL/ml of ampicilin was used as the positive control, and PBS was used as the negative control. After culturing in a CO2 incubator at 37°C for 24 hours, the diameter of the S. mutans inhibition zone formed around the paper disc was measured in two perpendicular locations and the average was calculated to evaluate the antibacterial activities. The average was expressed in mm.

S. mutans [1] = assay: Agar diffusion test of fluoride varnish of hydrogenated rosin mixed with antibacterial substance, inhibition zone; settings: for Inhibition zone, Fluoride varnish + 1 mM substance / Inhibition zone, Fluoride varnish + 10 mM substance: substance mixed 1:1 with fluoride varnish, positive control = ampicillin alone; for antibacterial activities of fluoride varnish mixed with substance compared with a fluoride varnish alone (in words): 1 mM or 10 mM antibacterial substance
Protocol: Antibacterial substance powders were dissolved in DMSO to 100 mM and stored. It was diluted with DMSO to prepare 20 mM and 2 mM antibacterial substances.
Specifically, S. mutans was primarily cultured in a BHI medium in a CO2 incubator at 37°C. for 24 hours. Then, 200 μL of a suspension of S. mutans was inoculated into BHI and secondarily cultured for 6 hours. Then, the OD value was measured with Eppendorf Biophotometer plus. After the measurement, the bacteria were mixed with top agar and then inoculated into the agar medium containing base agar. After top agar hardened, a 6 mm diameter paper disc was placed on the agar medium.
5 μL of each of 0.1 mM, 1 mM and 10 mM antibacterial substances was dropped on the paper disc. 10 μL/ml of ampicilin was used as the positive control, and PBS was used as the negative control. After culturing in a CO2 incubator at 37°C for 24 hours, the diameter of the S. mutans inhibition zone formed around the paper disc was measured in two perpendicular locations and the average was calculated to evaluate the antibacterial activities. The average was expressed in mm.
Fluoride varnishes mixed with an antibacterial substance which comprise an antibacterial substance tested in Test Example 1 were prepared according to the method described in Example 2 and the antibacterial activities thereof were tested.

S. mutans [2] = assay: Formation of Semi-inhibition zone by fluoride varnish mixed with antibacterial substance (agar diffusion); settings: for Semi-inhibition zone, Fluoride varnish + 1 mM substance / Semi-inhibition zone, Fluoride varnish + 10 mM substance: Table 4, substance mixed 1:1 with fluoride varnish, positive control = ampicillin alone
Source text: In addition, the formation of Semi-inhibition zone was investigated according to the same method as in Test Example 1.

S. mutans [3] = assay: Minimum inhibitory concentration (MIC) and minimal bactericidal concentration (MBC), 96-well BHI broth dilution; settings: for MIC: BHI broth, 24-hour culture, absorbance at 600 nm
Protocol: The minimum inhibitory concentration and minimal bactericidal concentration of antibacterial substances were identified using S. mutans, which is related to dental caries, as the strain. Specifically, in order to measure MIC, a 96-well plate containing 100 μL of BHI broth per well was used. Antibacterial substances were used at a concentration of 16 mM, and the substance No. 1-2 of Example 1 was used at a concentration of 1 mM. The antibacterial materials were transferred to the first well and diluted stepwise. The substance No. 1-2 was diluted to 1 mM to 0.004375 mM and the other antibacterial substances were diluted to 16 mM to 0.007 mM. S. mutans was activated using BHI broth as the medium and cultured in a CO2 incubator at 37° C. for 24 hours. Then, the bacteria were cultured for another 6 hours, and then 100 μL thereof was added to each well of the 96-well plate. After 24-hour culture, the minimum inhibitory concentration was determined by measuring the absorbance at 600 nm with Enzyme-linked immuno-assay reader (Spectra MAX250, Molecular Devices Co.).

[4] = listed as xanthorrhizol (Santa Cruz)
[5] = listed as xanthorrhizol (BioAlpha)
[6] = Streptococcus mutans, 24 h, read-out: MIC
[7] = Streptococcus mutans, read-out: MBC

SMILES	diameter of the S. mutans inhibition zone, 0.1 mM antibacterial substance alone (S. mutans (ATCC 25175))	diameter of the S. mutans inhibition zone, 1 mM antibacterial substance alone (S. mutans (ATCC 25175))	diameter of the S. mutans inhibition zone, 10 mM antibacterial substance alone (S. mutans (ATCC 25175))	Inhibition zone, Fluoride varnish + 1 mM substance (S. mutans [1]; primary test (Table 2))	Inhibition zone, Fluoride varnish + 10 mM substance (S. mutans [1]; primary test (Table 2))	Inhibition zone, Fluoride varnish + 1 mM substance (S. mutans [1]; secondary test (Table 3))	Inhibition zone, Fluoride varnish + 10 mM substance (S. mutans [1]; secondary test (Table 3))	Semi-inhibition zone, Fluoride varnish + 1 mM substance (S. mutans [2])	Semi-inhibition zone, Fluoride varnish + 10 mM substance (S. mutans [2])	MIC, rank (in words) (S. mutans [3])	antibacterial activities against S. mutans (in words) (S. mutans (ATCC 25175))	antibacterial activities of fluoride varnish mixed with substance compared with a fluoride varnish alone (in words) (S. mutans [1]; primary test)	MIC (S. mutans [3]; [6])	MBC (S. mutans [3]; [7])	other results
CC(C)=CCC[C@@H](C)c1ccc(C)c(O)c1 [No. 1-1, xanthorrhizol]	6 mm	6 mm	7.75 mm	9.14 mm	10.62 mm	8.64 mm	10.28 mm	25.515 mm	25.725 mm						MIC (S. mutans [3]; [4]): 62 µM (≈ 13.5 µg/mL); MBC (S. mutans [3]; [4]): 125 µM (≈ 27.3 µg/mL)
CC(C)=CCC[C@@H](C)c1ccc(C)c(O)c1 [No. 1-2, xanthorrhizol]	8.26 mm	10.3 mm		8.58 mm		9.65 mm		12.265 mm		lowest MIC					MIC (S. mutans [3]; [5]): 15 µM (≈ 3.28 µg/mL); MBC (S. mutans [3]; [5]): 62 µM (≈ 13.5 µg/mL)
C=C[C@@](C)(/C=C/c1ccc(O)cc1)CCC=C(C)C [No. 2, Bakuchiol]	6 mm	8.9 mm	14.5 mm	9.55 mm	9.82 mm	8.53 mm	10.10 mm	22.87 mm	26.705 mm	lowest MIC	significant antibacterial activities	significant antibacterial activities	15 µM (≈ 3.85 µg/mL)	31 µM (≈ 7.95 µg/mL)	MBC, rank (in words) (S. mutans [3]): lowest MBC
CC(C)=CCc1cc(C(=O)/C=C/c2ccc(O)cc2)c(O)cc1O [No. 3, Bavachalcone]	9.63 mm	14.51 mm	18.87 mm	11.31 mm	15.35 mm	12.79 mm	13.17 mm	34.025 mm	20.74 mm	lowest MIC	significant antibacterial activities	significant antibacterial activities	15 µM (≈ 4.87 µg/mL)	62 µM (≈ 20.1 µg/mL)	activities against S. mutans (in words) (S. mutans (ATCC 25175)): significant activities; activities against S. mutans, rank (in words) (S. mutans (ATCC 25175); 1 mM antibacterial substance): highest activities; activities against S. mutans, rank (in words) (S. mutans (ATCC 25175); 10 mM antibacterial substance): highest activities; increase of antibacterial activities of fluoride varnish mixed with substance (S. mutans [1]; primary test, compared with a fluoride varnish alone): ≥ 70%; antibacterial activities of fluoride varnish mixed with substance (in words) (S. mutans [1]; secondary test): remarkable antibacterial activities; formation of Semi-inhibition zone (in words) (S. mutans [2]): largest Semi-inhibition zone
CC1(C)C=Cc2c(ccc(C(=O)/C=C/c3ccc(O)cc3)c2O)O1 [No. 4, Isobavachromene]	6 mm	8.71 mm	9.91 mm	9.94 mm	10.93 mm	9.17 mm	9.96 mm	20.795 mm	24.81 mm	lowest MIC	significant antibacterial activities	significant antibacterial activities	15 µM (≈ 4.84 µg/mL)	125 µM (≈ 40.3 µg/mL)	
CC1(C)C=Cc2cc(C(=O)/C=C/c3ccc(O)cc3)c(O)cc2O1 [No. 5, Bavachromene]	6 mm	8.75 mm	9.74 mm	10.27 mm	10.60 mm	8.66 mm	10.48 mm	20.79 mm	25.235 mm		significant antibacterial activities	significant antibacterial activities	31 µM (≈ 9.99 µg/mL)	125 µM (≈ 40.3 µg/mL)	antibacterial activities against S. mutans in all conditions (in words) (S. mutans (ATCC 25175); 10 mM, 1 mM and 0.1 mM): significant antibacterial activities
CC1(C)S[C@@H]2[C@H](NC(=O)[C@H](N)c3ccccc3)C(=O)N2[C@H]1C(=O)O [Positive control group, ampicillin, reference compound]	17.24 mm	22.2 mm	22.4 mm	18.05 mm	18.72 mm	13.55 mm	14.84 mm	13.55 mm	14.84 mm						formation of Semi-inhibition zone (in words) (S. mutans [2]): did not form a Semi-inhibition zone
CC(C)=CCC[C@@H](C)c1ccc(C)c(O)c1 [xanthorrhizol]											significant antibacterial activities	significant antibacterial activities			activities against S. mutans (in words) (S. mutans (ATCC 25175)): significant activities
